Assay results taken from ChEMBL document CHEMBL5512630, “The mechanism of UNC-51-like kinase 1 and the applications of small molecule modulators in cancer treatment” (Eur J Med Chem, 2024).

Columns and labels:
[1] = biological target: T1, Serine/threonine-protein kinase ULK1 (Homo sapiens) (UniProt O75385); test: Inhibition of ULK1 (unknown origin) relative to control; settings: concentration not given here
T1 sequence (whole entry): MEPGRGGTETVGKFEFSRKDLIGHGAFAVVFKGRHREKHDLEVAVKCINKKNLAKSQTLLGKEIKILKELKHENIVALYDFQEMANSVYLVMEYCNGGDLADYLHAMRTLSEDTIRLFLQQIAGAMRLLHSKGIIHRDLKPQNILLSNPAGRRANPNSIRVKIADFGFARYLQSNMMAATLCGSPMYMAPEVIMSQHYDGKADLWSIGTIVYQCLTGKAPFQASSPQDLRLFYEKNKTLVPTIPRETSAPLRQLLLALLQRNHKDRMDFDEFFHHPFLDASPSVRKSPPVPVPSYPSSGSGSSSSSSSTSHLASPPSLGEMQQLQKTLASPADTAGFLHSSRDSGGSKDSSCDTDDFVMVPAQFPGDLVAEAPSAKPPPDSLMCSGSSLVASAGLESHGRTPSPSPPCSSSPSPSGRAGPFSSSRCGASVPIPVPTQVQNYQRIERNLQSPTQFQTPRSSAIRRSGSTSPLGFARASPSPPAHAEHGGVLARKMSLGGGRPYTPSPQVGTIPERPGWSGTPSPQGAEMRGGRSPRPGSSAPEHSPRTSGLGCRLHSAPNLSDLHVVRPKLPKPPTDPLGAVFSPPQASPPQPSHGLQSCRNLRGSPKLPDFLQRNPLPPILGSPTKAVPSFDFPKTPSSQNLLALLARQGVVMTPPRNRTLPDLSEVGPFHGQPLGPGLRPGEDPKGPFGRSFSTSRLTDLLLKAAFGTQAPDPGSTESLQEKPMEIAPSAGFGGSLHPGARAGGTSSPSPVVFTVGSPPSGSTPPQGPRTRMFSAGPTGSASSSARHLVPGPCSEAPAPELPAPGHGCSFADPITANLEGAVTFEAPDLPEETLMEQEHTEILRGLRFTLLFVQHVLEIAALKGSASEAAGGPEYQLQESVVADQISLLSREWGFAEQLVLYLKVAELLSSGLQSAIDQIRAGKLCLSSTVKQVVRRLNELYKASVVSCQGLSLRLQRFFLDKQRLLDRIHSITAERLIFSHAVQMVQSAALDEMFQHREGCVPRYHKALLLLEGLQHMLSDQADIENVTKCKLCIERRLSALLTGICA

[2] = test system: Non-small cell lung cancer cell line; test: Antiproliferative activity against Non-small cell lung cancer cells (unknown origin); assay type: functional, cell-based

| SMILES | inhibition [1] [%] | IC50 [2] [nM] |
| --- | --- | --- |
| O=c1c(O)c(-c2ccc(O)c(O)c2)oc2cc(O)ccc12 | 75 |  |
| C=CC(=O)Nc1cc(Nc2nccc(-c3cn(C)c4ccccc34)n2)c(OC)cc1N(C)CCN(C)C [OSIMERTINIB] |  | 41 |
